The source of these data is patent publication US20050004155A1, “Use of methylnaltrexone to treat irritable bowel syndrome” (priority 2003, published 2005).

Data set [1] deals with subjects with IBS of the constipation-predominant and alternating types. The following applies: 1 mg twice daily for 8 weeks; 25 subjects; cited from earlier work.
The next data set deals with patients with IBS. The settings on record: 0.4 mg intravenously; 50 patients; versus placebo; cited from earlier work.
The test system of data set [2] is patients with constipation-predominant IBS. The following applies: 16 mg three times a week over eight weeks, cited from earlier work.
Data set [3] deals with normal subjects. Briefly: Adverse effects during repeated intravenous dosing. The settings on record: 12 doses of 0.3 mg/kg every 6 hours intravenous. The data set is classed as in vivo, human. The protocol:
(§1) With approval from the Institutional Review Board, 12 normal subjects (8 males and 4 non-pregnant females) participated in a controlled trial. The mean age was 29.3±5.8 (mean+/−standard deviation [SD]) years. […] Subjects were administered 12 consecutive doses of methylnaltrexone at a dosage rate of 0.3 mg/kg every 6 hours via intravenous injection. Methylnaltrexone was dissolved in isotonic saline for administration in this study. No other excipients were present in the administered solution. Oral-cecal transit time was measured prior to the first dose and after the last dose, following repeated dosing for 3 days, using a lactulose hydrogen breath test (Yuan, C. S., et al., Clin. Pharmacol. Ther. 1996;59:469-475). A subjective rating test for possible opioid agonist effects was also employed (Yuan, C. S., et al., Drug Alcohol Dependence 1998;52:161-165). […] The reduction in the means was statistically significant at the level of P<0.05 using the paired t-test and the Wilcoxon signed rank test. […] The absence of statistically significant changes in overall subjective opioid ratings is consistent with the lack of penetration into the central nervous system by methylnaltrexone.

The conditions of data set [4]: white crystalline powder; cited from earlier work.
Data set [5] relates to normal subjects. Briefly: Oral-cecal transit time by lactulose hydrogen breath test. The following applies: 12 doses of 0.3 mg/kg every 6 hours intravenous; 12 normal subjects not receiving opioids; mean±SD; baseline mean 101.3±29.4 minutes; P<0.05. The data set is classed as in vivo, human. The protocol: as §1

As to `C=CCN1CC[C@]23c4c5ccc(O)c4O[C@H]2C(=O)CC[C@@]3(O)[C@H]1C5` [naloxone], in data set [1], the “adequate symptom relief versus placebo” value is given as “not statistically significantly different”; the “subjective ratings such as severity ratings and pain scores” value is given as “Marginal but non-statistically significant improvements”. The “degree of muscle spasm and relative intensity of pain” value in the data set with patients with IBS is on record as “not associated with any objective or subjective evidence of beneficial effect”.

In the case of `C=C1CCC2(O)C3Cc4ccc(OC5OC(C(=O)O)C(O)C(O)C5O)c5c4C2(CCN3CC2CC2)C1O5` (stereo not shown) [nalmefene glucuronide], in data set [2] (patient reported), the gut transit time result was “decreased” and the stool frequency result was “increased”. Besides, in data set [2], the “abdominal pain or bloating” value was “did not reduce” and the stool consistency entry was “not improved”.

For `C[N@+]1(CC2CC2)CC[C@]23c4c5ccc(O)c4O[C@H]2C(=O)CC[C@@]3(O)[C@H]1C5` [methylnaltrexone, N-methyl-naltrexone bromide], the adverse effects entry with normal subjects [3] is given as “No significant adverse effects”. Also, the solubility in water entry in data set [4] is listed as “freely soluble in water”. For the same molecule, the “oral-cecal transit time after 3 days of treatment” value in the data set on normal subjects [5] was 82.5 ± 20.7 min.
